The source of these data is patent US20230128114A1, “METHODS AND COMPOSITIONS FOR TREATING OR PREVENTING AN INFLAMMATORY CONDITION” (priority 2020, published 2023).

This data set is described as follows: Solubility of formulations for in vivo analysis (visual observation). Type of data set: physicochemical. From the text:
Cannabidiol (CBD) and hydroxychloroquine (HCQ), were purchased by Pharmacology Discovery Services Taiwan, Ltd. The formulations are summarised in Table 3.

For the compound `C[C@@H]1C[C@H]2[C@@H]3CCC4=CC(=O)C=C[C@]4(C)[C@@]3(F)[C@@H](O)C[C@]2(C)[C@@]1(O)C(=O)CO` [Dexamethasone], the Solubil. result is given as “I”.
